These results are taken from US20090082332A1, “PURINE DERIVATIVES FOR THE TREATMENT OF VIRAL OR ALLERGIC DISEASES AND CANCERS” (priority 2005, published 2009).

This assay concerns the target T1, Recombinant human TLR7 (Homo sapiens, UniProt Q9NYK1).
T1 construct: expressed in transfected cells; host or cells: HEK293 cell line stably expressing the pNiFty2-SEAP reporter plasmid; TLR7 in pUNO vector, blasticidin selection
T1 sequence (Q9NYK1 27-1049): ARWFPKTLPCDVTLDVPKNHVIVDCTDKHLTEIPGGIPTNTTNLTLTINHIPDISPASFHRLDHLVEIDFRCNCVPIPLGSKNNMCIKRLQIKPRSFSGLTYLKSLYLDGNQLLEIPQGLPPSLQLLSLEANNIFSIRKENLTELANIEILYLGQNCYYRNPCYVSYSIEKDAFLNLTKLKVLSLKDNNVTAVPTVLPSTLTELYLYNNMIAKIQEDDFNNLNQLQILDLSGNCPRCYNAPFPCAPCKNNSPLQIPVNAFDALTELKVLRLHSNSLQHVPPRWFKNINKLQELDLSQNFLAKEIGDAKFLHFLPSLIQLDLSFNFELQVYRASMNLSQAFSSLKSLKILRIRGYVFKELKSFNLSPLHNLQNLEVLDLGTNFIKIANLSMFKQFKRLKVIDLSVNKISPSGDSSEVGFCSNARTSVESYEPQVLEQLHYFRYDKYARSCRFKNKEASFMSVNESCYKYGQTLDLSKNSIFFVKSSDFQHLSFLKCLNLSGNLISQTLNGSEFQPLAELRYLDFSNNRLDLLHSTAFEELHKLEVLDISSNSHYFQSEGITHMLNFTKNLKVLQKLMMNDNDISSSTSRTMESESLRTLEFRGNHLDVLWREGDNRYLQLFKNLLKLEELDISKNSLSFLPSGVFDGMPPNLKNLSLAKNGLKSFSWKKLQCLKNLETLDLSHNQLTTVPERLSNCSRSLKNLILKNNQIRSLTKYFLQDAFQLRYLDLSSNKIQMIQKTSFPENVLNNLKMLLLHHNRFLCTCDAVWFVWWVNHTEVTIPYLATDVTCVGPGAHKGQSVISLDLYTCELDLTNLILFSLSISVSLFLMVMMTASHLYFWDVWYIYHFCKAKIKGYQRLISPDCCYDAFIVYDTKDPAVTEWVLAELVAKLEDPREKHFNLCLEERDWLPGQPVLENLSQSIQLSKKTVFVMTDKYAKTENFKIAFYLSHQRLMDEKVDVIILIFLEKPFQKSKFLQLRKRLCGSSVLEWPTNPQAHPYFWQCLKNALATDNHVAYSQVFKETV
As to the kind of experiment: Human TLR7 assay (SEAP reporter in HEK293 cells). The note with it: HEK293 cells expressing human TLR7 and pNiFty2-SEAP reporter; overnight incubation at 37° C., 0.1% (v/v) DMSO. In kind it is cell-based. From the text:
Recombinant human TLR7 was stably expressed in a HEK293 cell line already stably expressing the pNiFty2-SEAP reporter plasmid; integration of the reporter gene was maintained by selection with the antibiotic zeocin. The most common variant sequence of human TLR7 (represented by the EMBL sequence AF240467) was cloned into the mammalian cell expression vector pUNO and transfected into this reporter cell-line. Transfectants with stable expression were selected using the antibiotic blasticidin. In this reporter cell-line, expression of secreted alkaline phosphatase (SEAP) is controlled by an NFkB/ELAM-1 composite promoter comprising five NFkB sites combined with the proximal ELAM-1 promoter. TLR signaling leads to the translocation of NFkB and activation of the promoter results in expression of the SEAP gene. TLR7-specific activation was assessed by determining the level of SEAP produced following overnight incubation of the cells at 37° C. with the standard compound in the presence of 0.1% (v/v) dimethylsulfoxide (DMSO). Concentration dependent induction of SEAP production by compounds was expressed as the log of the minimal effective concentration of compound to induce SEAP release (pMEC).

Regarding `CCCCOc1nc(N)c2[nH]c(=O)n(CCCCN(Cc3cccc(CC(=O)OC)c3)C3CCN(C)CC3)c2n1` [Example 10, Methyl (3-{[[4-(6-amino-2-butoxy-8-oxo-7,8-dihydro-9H-purin-9-yl)butyl] (1-methylpiperidin-4-yl)amino]methyl}phenyl)acetate], the “pMEC (log of the minimal effective concentration of compound to induce SEAP release)” value is recorded as “pMEC 8.4”.
The result for `CCCCOc1nc(N)c2[nH]c(=O)n(CCCN(Cc3cccc(CC(=O)OC)c3)C3CCN(CC#N)CC3)c2n1` [Example 14, Methyl [3-({[3-(6-amino-2-butoxy-8-oxo-7,8-dihydro-9H-purin-9-yl)propyl][1-(cyanomethyl)piperidin-4-yl]amino}methyl)phenyl]acetate] reads “pMEC 7.7”; that for `CCCCOc1nc(N)c2[nH]c(=O)n(CCCN(Cc3cccc(CC(=O)OC)c3)C3CCN(CCCC(=O)OC(C)(C)C)CC3)c2n1` [Example 17, tert-Butyl 4-(4-{[3-(6-amino-2-butoxy-8-oxo-7,8-dihydro-9H-purin-9-yl)propyl][3-(2-methoxy-2-oxoethyl)benzyl]amino}piperidin-1-yl)butanoate], “pMEC 9.1”.
